Data on one substance can be found in patent US8574547B2, “Photoacoustic probes and methods of imaging” (The Board of Trustees of the Leland Stanford Junior …, priority 2007, dated 2013).

The assay has as its target T1, αvβ3 integrin (Homo sapiens, UniProt P05106+P06756).
T1 construct: endogenous in cells
In words: Targeting ability: imaging inhibition of Alexa488 conjugated αvβ3 integrin antibody binding to cells. It counts as cell-based. The conditions noted are these: cells incubated 1 hour with substance, then ½ hour with Alexa488 conjugated αvβ3 integrin antibody. The method, then:
FIGS. 7(1)-7(4) illustrate digital images of cells that were incubated for 1 hour with PBS (FIG. 7(1)), QSY-21 (FIG. 7(2)), […] (FIG. 7(3)), and […] (FIG. 7(4)). Then the cells were incubated for ½ hour with Alexa488 conjugated αvβ3 integrin antibody.
Targeting ability of the conjugate was tested by imaging inhibition of the avb3 intergrin antibody. Cells were incubated for 1 hour with PBS (FIG. 7(1)), QSY-21 (FIG. 7(2)), RGD-QSY21 (FIG. 7(3)), and RGD (FIG. 7(4)). Then the cells were incubated for ½ hour with Alexa488 conjugated αvβ3 integrin antibody.

T1 sequence (P06756 31-889 limits assumed): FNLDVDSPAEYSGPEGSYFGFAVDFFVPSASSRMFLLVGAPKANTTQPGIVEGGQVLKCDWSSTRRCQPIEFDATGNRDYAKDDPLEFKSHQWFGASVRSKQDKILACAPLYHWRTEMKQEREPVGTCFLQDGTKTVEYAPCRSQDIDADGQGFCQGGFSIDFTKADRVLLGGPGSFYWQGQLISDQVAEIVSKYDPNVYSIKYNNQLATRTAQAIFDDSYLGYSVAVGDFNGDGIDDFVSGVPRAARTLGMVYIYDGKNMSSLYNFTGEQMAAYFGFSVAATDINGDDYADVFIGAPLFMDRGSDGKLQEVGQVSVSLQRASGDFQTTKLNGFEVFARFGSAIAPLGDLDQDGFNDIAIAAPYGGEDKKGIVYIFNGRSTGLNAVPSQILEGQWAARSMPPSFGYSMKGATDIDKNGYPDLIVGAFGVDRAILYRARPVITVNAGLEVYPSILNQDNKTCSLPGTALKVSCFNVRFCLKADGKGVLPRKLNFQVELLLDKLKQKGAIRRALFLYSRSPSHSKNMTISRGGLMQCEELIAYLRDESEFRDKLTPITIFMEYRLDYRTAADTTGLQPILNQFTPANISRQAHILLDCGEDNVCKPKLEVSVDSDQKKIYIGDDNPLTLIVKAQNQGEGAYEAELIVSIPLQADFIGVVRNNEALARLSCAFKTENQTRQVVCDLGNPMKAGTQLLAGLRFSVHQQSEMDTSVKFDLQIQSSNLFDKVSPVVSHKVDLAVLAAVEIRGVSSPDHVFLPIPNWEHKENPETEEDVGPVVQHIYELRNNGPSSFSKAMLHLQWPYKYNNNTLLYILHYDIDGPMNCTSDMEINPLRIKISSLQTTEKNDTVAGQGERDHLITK
T1 sequence (P06756 891-1048 partner limits assumed): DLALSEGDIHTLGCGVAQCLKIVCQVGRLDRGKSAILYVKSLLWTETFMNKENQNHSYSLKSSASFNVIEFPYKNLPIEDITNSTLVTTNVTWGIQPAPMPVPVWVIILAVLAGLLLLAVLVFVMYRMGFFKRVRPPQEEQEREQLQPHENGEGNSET
T1 sequence (P05106 27-788): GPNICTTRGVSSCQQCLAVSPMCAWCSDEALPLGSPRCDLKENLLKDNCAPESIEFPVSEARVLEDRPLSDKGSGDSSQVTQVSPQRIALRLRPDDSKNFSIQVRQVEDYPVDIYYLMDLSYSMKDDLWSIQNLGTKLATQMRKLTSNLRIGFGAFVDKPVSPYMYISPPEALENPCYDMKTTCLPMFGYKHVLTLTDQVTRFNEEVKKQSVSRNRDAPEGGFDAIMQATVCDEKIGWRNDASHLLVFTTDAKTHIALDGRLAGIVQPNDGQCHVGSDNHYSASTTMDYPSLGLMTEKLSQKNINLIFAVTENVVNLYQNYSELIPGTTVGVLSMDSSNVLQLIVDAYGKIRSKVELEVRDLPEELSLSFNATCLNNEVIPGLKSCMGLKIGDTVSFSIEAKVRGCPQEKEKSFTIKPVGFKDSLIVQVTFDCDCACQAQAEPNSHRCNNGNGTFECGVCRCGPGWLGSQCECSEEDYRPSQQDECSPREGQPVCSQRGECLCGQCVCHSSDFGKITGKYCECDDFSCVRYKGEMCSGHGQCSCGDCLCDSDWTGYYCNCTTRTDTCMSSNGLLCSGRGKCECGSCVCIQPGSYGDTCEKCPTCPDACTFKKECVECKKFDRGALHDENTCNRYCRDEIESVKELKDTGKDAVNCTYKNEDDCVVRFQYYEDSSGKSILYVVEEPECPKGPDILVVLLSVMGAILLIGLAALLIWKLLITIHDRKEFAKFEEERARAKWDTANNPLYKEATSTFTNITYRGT

Turning to Arg-Gly-Asp [RGD], the “inhibition of αvβ3 integrin antibody binding” value is “inhibition of antibody binding”.
